Data on 20 compounds can be found in patent US9593110B2, “Neprilysin inhibitors” (Theravence Biopharma R&D IP, LLC, priority 2014, dated 2017).

The Ki is a measure of affinity in units of concentration, obtained from inhibition or displacement.

For the experiment, the target named is human NEP (Homo sapiens (Human), UniProt P08473). The experiment can be described thus: In vitro enzyme inhibition assay at human NEP. Conditions: recombinant human NEP, fluorogenic peptide substrate, 37° C.; for Ki: pKi.
human NEP, sequence (P08473 52-750): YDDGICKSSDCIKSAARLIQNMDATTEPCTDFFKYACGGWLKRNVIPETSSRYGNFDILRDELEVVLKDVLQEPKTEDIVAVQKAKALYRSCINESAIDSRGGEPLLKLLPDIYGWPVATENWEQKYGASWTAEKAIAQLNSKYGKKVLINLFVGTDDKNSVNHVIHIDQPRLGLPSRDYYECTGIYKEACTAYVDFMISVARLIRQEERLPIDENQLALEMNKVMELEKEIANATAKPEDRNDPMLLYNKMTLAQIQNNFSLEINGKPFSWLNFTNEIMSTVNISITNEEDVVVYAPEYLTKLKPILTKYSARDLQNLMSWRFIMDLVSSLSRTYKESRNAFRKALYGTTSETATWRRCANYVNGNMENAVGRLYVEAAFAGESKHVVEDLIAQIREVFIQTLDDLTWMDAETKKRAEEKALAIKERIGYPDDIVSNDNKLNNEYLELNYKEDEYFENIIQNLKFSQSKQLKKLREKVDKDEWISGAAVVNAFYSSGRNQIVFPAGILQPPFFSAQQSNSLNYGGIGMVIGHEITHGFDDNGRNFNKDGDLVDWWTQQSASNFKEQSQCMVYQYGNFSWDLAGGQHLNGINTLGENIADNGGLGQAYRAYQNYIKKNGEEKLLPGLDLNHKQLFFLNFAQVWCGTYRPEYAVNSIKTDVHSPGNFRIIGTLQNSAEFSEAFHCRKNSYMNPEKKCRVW

Consider `COC(=O)N[C@H](C[C@@H](Cc1ccc(-c2ccccc2)cc1)NC(=O)c1c[nH]nn1)C(=O)O` [Example 31, (2R,4R)-5-Biphenyl-4-yl-2-methoxycarbonylamino-4-[(1H-[1,2,3]triazole-4-carbonyl)amino]pentanoic Acid], for which the Ki lay within 1.26 to 3.16 nM. Still for that read-out and setting: next, `NCC(=O)N[C@H](C[C@@H](Cc1ccc(-c2ccccc2F)cc1)NC(=O)c1c[nH]nn1)C(=O)O` [Example 32, (2R,4R)-2-(2-Aminoacetylamino)-5-(2′-fluorobiphenyl-4-yl)-4-[(1H-[1,2,3]triazole-4-carbonyl)amino]pentanoic Acid]: 3.16 to 10 nM. Regarding `NCC(=O)N[C@H](C[C@@H](Cc1ccc(-c2cc(Cl)ccc2F)cc1)NC(=O)c1c[nH]nn1)C(=O)O` [Example 33, (2R,4R)-2-(2-Aminoacetylamino)-5-(5′-chloro-2′-fluoro-biphenyl-4-yl)-4-[(1H-[1,2,3]triazole-4-carbonyl)amino]pentanoic Acid], the pKi result is recorded as “≧9.0”. Consider `CC(C)c1coc(C(=O)N[C@H](Cc2ccc(-c3cc(Cl)ccc3F)cc2)C[C@@H](NC(=O)CN)C(=O)O)n1` [Example 34-1, (2R,4R)-2-(2-Aminoacetylamino)-5-(5′-chloro-2′-fluorobiphenyl-4-yl)-4-[(4-isopropyloxazole-2-carbonyl)amino]pentanoic acid], for which the Ki fell in the range of 1.26 to 3.16 nM. Consider `CC(C)c1coc(C(=O)N[C@H](Cc2ccc(-c3cc(Cl)ccc3F)cc2)C[C@@H](NC(=O)C(C)(C)N)C(=O)O)n1` [Example 35, (2R,4R)-2-(2-Amino-2-methylpropionylamino)-5-(5′-chloro-2′-fluorobiphenyl-4-yl)-4-[(4-isopropyloxazole-2-carbonyl)amino]pentanoic Acid], for which the Ki was 3.16 to 10 nM. On to `CC(C)c1coc(C(=O)N[C@H](Cc2ccc(-c3cc(Cl)ccc3F)cc2)C[C@@H](NC(=O)[C@H](C)N)C(=O)O)n1` [Example 36-1, (2R,4R)-2-((S)-2-Aminopropionylamino)-5-(5′-chloro-2′-fluorobiphenyl-4-yl)-4-[(4-isopropyloxazole-2-carbonyl)amino]pentanoic Acid], for which the Ki was 1.26 to 3.16 nM.

For `CC(C)c1coc(C(=O)N[C@H](Cc2ccc(-c3cc(Cl)ccc3F)cc2)C[C@@H](NC(=O)[C@@H](C)N)C(=O)O)n1` [Example 36-2, (2R,4R)-2-((R)-2-Aminopropionylamino)-5-(5′-chloro-2′-fluorobiphenyl-4-yl)-4-[(4-isopropy-oxazole-2-carbonyl)-amino]pentanoic Acid], the Ki fell in the range of 1.26 to 3.16 nM. As for `C[C@H](N)C(=O)N[C@H](C[C@@H](Cc1ccc(-c2cc(Cl)ccc2F)cc1)NC(=O)c1cnn[nH]1)C(=O)O` [Example 37-1, (2R,4R)-2-((S)-2-Aminopropionylamino)-5-(5′-chloro-2′-fluorobiphenyl-4-yl)-4-[(3H-[1,2,3]triazole-4-carbonyl)amino]pentanoic acid], the pKi result is recorded as “≧9.0”. For `CC(C)c1coc(C(=O)N[C@H](Cc2ccc(-c3cc(Cl)ccc3F)cc2)C[C@@H](NC(=O)[C@H](N)C(C)C)C(=O)O)n1` [Example 38-1, (2R,4R)-2-((R)-2-Amino-3-methylbutyrylamino)-5-(5′-chloro-2′-fluorobiphenyl-4-yl)-4-[(4-isopropyloxazole-2-carbonyl)amino]pentanoic Acid], the Ki was 3.16 to 10 nM. For `CC(C)c1coc(C(=O)N[C@H](Cc2ccc(-c3cc(Cl)ccc3F)cc2)C[C@@H](NC(=O)[C@@H](N)C(C)C)C(=O)O)n1` [Example 38-2, (2R,4R)-2-((S)-2-Amino-3-methylbutyrylamino)-5-(5′-chloro-2′-fluorobiphenyl-4-yl)-4-[(4-isopropyloxazole-2-carbonyl)-amino]pentanoic Acid], the Ki fell in the range of 1.26 to 3.16 nM. Take `CC(C)[C@H](N)C(=O)N[C@H](C[C@@H](Cc1ccc(-c2cc(Cl)ccc2F)cc1)NC(=O)c1cnn[nH]1)C(=O)O` [Example 39-1, (2R,4R)-2-((S)-2-Amino-3-methylbutyrylamino)-5-(5′-chloro-2′-fluorobiphenyl-4-yl)-4-[(3H-[1,2,3]triazole-4-carbonyl)amino]pentanoic acid]: the pKi entry is “≧9.0”. Take `NCCCC(=O)N[C@H](C[C@@H](Cc1ccc(-c2cc(Cl)ccc2F)cc1)NC(=O)c1cnn[nH]1)C(=O)O` [Example 40, (2R,4R)-2-(4-Aminobutyrylamino)-5-(5′-chloro-2′-fluorobiphenyl-4-yl)-4-[(3H-[1,2,3]triazole-4-carbonyl)amino]pentanoic Acid]: the Ki is at most 1 nM. In the case of `NCCC(=O)N[C@H](C[C@@H](Cc1ccc(-c2cc(Cl)ccc2F)cc1)NC(=O)c1cnn[nH]1)C(=O)O` [Example 41, (2R,4R)-2-(3-Aminopropionylamino)-5-(5′-chloro-2′-fluoro-biphenyl-4-yl)-4-[(3H-[1,2,3]triazole-4-carbonyl)amino]pentanoic Acid], the pKi result is listed as “≧9.0”. As for `CC(C)c1coc(C(=O)N[C@H](Cc2ccc(-c3cc(Cl)ccc3F)cc2)C[C@@H](NC(=O)[C@H](N)CO)C(=O)O)n1` [Example 42-1, (2R,4R)-2-((R)-2-Amino-3-hydroxypropionylamino)-5-(5′-chloro-2′-fluorobiphenyl-4-yl)-4-[(4-isopropyloxazole-2-carbonyl)-amino]pentanoic Acid], the Ki was 1.26 to 3.16 nM. Regarding `CC(C)c1coc(C(=O)N[C@H](Cc2ccc(-c3cc(Cl)ccc3F)cc2)C[C@@H](NC(=O)[C@@H](N)CO)C(=O)O)n1` [Example 42-2, (2R,4R)-2-((S)-2-Amino-3-hydroxypropionylamino)-5-(5′-chloro-2′-fluorobiphenyl-4-yl)-4-[(4-isopropyloxazole-2-carbonyl)amino]pentanoic Acid], the Ki is 1.26 to 3.16 nM. Turning to `Cc1cnc(C(=O)N[C@H](Cc2ccc(-c3cc(Cl)ccc3F)cc2)C[C@@H](CNC(=O)CN)C(=O)O)o1` [Example 43, (2S,4S)-2-[(2-Aminoacetylamino)methyl]-5-(5′-chloro-2′-fluorobiphenyl-4-yl)-4-[(5-methyloxazole-2-carbonyl)amino]pentanoic Acid], the Ki is at most 1 nM.

As to `NCC(=O)NC[C@H](C[C@@H](Cc1ccc(-c2cc(Cl)ccc2F)cc1)NC(=O)c1cnn[nH]1)C(=O)O` [Example 44-1, (2S,4S)-2-[(2-Aminoacetylamino)methyl]-5-(5′-chloro-2′-fluorobiphenyl-4-yl)-4-[(3H-[1,2,3]triazole-4-carbonyl)amino]pentanoic acid], the pKi result is “≧9.0”. As for `Cc1cnc(C(=O)N[C@H](Cc2ccc(-c3cc(Cl)ccc3F)cc2)C[C@@H](CNC(=O)C(C)(C)N)C(=O)O)o1` [Example 45, (2S,4S)-2-[(2-Amino-2-methylpropionylamino)methyl]-5-(5′-chloro-2′-fluorobiphenyl-4-yl)-4-[(5-methyloxazole-2-carbonyl)-amino]pentanoic Acid], the Ki was at most 1 nM. As for `COC(=O)N[C@H](C(=O)N[C@H](C[C@@H](Cc1ccc(-c2cc(Cl)ccc2F)cc1)NC(=O)c1c[nH]nn1)C(=O)O)C(C)C` [Example 46, (2R,4R)-5-(5′-Chloro-2′-fluorobiphenyl-4-yl)-2-((S)-2-methoxycarbonylamino-3-methylbutyrylamino)-4-[(1H-[1,2,3]triazole-4-carbonyl)amino]pentanoic Acid], the Ki lay within 1.26 to 3.16 nM. In the case of `CS(=O)(=O)N[C@H](C[C@@H](Cc1ccc(-c2ccccc2)cc1)NC(=O)c1c[nH]nn1)C(=O)O` [Example 47, (2R,4R)-5-Biphenyl-4-yl-2-methanesulfonylamino-4-[(1H-[1,2,3]triazole-4-carbonyl)amino]pentanoic Acid], the Ki is 3.16 to 10 nM.
